Laboratory results from US20240082274A1, “FUNGAL COMPOUND COMPOSITIONS AND METHODS FOR MODULATING INFLAMMATION” (TURTLE BEAR HOLDINGS, LLC, priority 2021, published 2024).

Legend:
[1] = target: T1, p38-alpha (MAPK14) (Homo sapiens, UniProt Q16539); test: MAPK binding affinity screen (DiscoveRx); conditions: component alone
T1 construct: purchased DiscoveRx

[2] = target: T2, JNK3 (MAPK10) (Homo sapiens, UniProt P53779); test: MAPK binding affinity screen (DiscoveRx); conditions: component alone
T2 construct: purchased DiscoveRx
T2 sequence (P53779 whole entry): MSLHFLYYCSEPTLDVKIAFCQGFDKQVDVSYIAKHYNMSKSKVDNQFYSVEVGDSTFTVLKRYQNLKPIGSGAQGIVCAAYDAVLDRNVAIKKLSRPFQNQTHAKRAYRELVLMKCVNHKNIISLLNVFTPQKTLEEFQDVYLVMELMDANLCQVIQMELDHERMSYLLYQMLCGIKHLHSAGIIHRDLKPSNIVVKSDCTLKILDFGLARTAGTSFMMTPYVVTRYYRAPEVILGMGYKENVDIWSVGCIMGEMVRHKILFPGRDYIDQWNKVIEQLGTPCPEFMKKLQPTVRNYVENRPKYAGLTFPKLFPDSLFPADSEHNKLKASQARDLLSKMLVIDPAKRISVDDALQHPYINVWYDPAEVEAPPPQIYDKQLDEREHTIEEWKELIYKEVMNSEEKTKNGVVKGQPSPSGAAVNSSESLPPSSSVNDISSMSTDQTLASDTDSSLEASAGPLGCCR

[3] = target: T3, TRKA (NTRK1) (Homo sapiens, UniProt P04629); test: MAPK binding affinity screen (DiscoveRx); conditions: component alone
T3 construct: purchased DiscoveRx
T3 sequence (P04629 33-796): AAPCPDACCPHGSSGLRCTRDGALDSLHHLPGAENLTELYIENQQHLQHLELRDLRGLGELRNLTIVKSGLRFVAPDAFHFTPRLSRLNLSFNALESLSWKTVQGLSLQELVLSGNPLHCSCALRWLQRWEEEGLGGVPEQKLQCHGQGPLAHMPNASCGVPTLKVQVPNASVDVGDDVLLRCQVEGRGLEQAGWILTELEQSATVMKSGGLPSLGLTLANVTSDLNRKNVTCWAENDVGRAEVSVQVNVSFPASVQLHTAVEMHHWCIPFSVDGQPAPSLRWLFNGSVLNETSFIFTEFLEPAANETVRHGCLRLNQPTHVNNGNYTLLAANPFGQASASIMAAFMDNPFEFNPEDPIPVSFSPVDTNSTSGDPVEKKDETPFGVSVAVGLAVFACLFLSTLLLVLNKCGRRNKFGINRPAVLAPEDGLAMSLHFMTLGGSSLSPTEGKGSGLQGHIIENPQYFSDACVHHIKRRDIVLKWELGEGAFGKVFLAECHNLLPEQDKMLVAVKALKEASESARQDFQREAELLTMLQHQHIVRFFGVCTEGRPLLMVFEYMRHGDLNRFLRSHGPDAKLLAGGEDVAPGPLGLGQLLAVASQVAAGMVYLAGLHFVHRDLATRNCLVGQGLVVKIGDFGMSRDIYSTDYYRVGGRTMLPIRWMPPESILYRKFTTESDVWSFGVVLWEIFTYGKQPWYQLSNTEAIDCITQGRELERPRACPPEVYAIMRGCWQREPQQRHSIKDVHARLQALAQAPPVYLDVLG

[4] = target: T4, TRKB (NTRK2) (Homo sapiens, UniProt Q16620); test: MAPK binding affinity screen (DiscoveRx); conditions: component alone, row of combination at 5 μg/mL
T4 construct: purchased DiscoveRx
T4 sequence (Q16620 32-822): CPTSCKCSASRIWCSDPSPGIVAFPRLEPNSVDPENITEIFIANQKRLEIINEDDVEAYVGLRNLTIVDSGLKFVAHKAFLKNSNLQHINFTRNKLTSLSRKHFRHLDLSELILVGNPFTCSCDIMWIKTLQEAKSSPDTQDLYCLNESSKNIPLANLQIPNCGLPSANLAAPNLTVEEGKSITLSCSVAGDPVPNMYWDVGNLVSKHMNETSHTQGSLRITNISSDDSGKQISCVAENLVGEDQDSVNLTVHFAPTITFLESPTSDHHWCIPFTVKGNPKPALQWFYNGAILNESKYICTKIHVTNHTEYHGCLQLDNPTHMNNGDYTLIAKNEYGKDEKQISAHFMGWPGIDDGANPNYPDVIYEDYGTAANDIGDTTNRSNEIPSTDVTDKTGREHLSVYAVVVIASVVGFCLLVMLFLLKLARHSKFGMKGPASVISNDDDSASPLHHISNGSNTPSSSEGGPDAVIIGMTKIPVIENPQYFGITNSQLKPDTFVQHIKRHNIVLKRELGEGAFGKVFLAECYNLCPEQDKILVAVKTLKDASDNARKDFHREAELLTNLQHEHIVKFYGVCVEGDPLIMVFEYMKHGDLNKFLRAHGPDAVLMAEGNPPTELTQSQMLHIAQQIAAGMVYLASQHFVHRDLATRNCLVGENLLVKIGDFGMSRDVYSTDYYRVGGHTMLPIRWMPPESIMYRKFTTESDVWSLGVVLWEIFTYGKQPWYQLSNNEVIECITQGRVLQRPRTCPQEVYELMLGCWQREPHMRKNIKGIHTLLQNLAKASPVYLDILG

[5] = target: T5, JAK1 (JH1domain-catalytic) (Homo sapiens, UniProt P23458); test: MAPK binding affinity screen (DiscoveRx); conditions: component alone
T5 construct: (JH1domain-; purchased DiscoveRx
T5 sequence (P23458 875-1153 limits assumed): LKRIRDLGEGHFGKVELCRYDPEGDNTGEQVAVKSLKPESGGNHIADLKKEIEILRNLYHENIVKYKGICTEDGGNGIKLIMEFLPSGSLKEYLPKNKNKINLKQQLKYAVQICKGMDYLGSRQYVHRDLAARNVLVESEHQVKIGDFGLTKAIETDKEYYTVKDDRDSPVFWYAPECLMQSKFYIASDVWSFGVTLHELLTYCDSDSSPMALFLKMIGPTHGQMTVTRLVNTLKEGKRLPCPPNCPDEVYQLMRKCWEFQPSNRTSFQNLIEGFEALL

[6] = target: T6, ROCK2 (Homo sapiens, UniProt O75116); test: MAPK binding affinity screen (DiscoveRx); conditions: component alone, row of combination at 62.5 μg/mL
T6 construct: purchased DiscoveRx
T6 sequence (O75116 whole entry): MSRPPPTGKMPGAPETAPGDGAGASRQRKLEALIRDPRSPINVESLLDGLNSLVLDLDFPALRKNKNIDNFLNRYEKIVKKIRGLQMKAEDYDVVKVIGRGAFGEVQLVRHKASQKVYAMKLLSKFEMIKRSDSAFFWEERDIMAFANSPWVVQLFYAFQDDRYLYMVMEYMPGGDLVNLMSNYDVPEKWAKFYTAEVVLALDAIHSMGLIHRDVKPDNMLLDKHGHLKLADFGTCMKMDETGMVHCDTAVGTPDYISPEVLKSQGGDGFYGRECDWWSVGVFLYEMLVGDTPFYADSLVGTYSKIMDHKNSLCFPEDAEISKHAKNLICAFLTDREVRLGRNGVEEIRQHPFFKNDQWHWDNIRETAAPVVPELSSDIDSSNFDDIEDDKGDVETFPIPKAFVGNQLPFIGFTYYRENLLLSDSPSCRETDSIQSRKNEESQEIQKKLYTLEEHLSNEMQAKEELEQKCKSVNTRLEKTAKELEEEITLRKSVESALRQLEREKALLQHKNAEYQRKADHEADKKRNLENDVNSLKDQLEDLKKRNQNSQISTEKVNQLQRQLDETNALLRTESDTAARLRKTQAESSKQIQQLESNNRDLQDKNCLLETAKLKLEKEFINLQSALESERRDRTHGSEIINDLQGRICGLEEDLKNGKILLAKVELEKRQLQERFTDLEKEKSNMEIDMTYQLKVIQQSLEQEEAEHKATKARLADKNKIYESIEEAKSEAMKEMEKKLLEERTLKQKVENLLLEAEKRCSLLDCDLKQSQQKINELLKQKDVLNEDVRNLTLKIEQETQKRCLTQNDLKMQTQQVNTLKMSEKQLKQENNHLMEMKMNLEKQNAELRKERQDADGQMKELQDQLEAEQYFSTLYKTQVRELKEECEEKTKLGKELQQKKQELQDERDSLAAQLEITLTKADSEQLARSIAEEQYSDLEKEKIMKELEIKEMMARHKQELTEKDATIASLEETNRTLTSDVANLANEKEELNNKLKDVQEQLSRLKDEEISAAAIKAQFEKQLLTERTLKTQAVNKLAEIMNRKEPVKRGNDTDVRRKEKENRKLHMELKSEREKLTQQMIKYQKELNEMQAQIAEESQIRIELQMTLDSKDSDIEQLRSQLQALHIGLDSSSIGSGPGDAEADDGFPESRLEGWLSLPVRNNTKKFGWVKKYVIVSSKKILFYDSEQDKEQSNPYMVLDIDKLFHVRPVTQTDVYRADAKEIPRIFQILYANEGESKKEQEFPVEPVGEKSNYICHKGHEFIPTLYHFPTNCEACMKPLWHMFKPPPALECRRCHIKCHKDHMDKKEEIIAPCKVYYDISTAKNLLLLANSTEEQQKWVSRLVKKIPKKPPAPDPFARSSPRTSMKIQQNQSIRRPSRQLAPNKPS

[7] = cited from earlier work
[8] = target: T7, MAO-A (Homo sapiens, UniProt P21397); conditions: Herraiz et al., 2010; cited from earlier work
T7 sequence (P21397 1-527): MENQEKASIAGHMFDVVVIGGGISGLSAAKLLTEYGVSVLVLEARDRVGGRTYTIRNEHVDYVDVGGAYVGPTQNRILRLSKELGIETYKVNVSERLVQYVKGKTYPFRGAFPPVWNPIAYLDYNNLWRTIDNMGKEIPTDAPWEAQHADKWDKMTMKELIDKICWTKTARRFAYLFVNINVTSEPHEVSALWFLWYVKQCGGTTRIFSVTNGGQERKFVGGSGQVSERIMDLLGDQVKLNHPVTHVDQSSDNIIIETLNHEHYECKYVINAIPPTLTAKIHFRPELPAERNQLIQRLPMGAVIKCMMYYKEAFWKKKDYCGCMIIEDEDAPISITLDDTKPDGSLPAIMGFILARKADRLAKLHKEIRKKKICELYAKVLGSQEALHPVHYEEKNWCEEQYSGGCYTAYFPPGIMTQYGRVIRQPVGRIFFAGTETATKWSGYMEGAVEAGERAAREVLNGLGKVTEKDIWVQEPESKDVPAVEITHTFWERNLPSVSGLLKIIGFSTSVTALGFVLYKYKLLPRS

[9] = target: T8, MAO-B (Homo sapiens, UniProt P27338); conditions: Herraiz et al., 2010; cited from earlier work
T8 sequence (P27338 1-520): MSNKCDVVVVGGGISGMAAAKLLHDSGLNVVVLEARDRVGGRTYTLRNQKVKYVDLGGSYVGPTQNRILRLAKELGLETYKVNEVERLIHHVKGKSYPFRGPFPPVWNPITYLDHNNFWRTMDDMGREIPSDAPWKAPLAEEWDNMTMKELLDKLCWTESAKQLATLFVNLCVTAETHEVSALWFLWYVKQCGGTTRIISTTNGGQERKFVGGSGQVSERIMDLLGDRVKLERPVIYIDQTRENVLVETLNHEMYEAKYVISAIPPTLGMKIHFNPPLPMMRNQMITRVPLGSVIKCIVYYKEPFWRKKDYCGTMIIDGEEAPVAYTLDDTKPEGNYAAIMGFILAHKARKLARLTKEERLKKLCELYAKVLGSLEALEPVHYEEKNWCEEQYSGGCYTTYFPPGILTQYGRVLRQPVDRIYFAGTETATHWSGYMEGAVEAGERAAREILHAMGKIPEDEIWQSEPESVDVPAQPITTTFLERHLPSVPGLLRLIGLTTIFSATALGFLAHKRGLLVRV

[10] = tested on: IL-10; test: IL-10 expression in human PBMCs under standard non-inflammatory conditions; format: cell-based; conditions: at multiple concentrations
Procedure: In a separate experiment, human peripheral blood mononuclear cells (PBMCs) were treated with different concentrations of norbaeocystin, norpsilocin, and vehicle control under standard non-inflammatory conditions, and IL-10 expression was measured.

[11] = tested on: TNF-α; test: TNF-α expression in LPS-induced human PBMCs; format: cell-based; conditions: 100 ng/mL LPS, individual components, FIG. 13
[12] = target: 5-HT2A receptor (Homo sapiens, UniProt P28223); conditions: Flanagan and Nichols, 2018; cited from earlier work
Chain of 5-HT2A receptor (P28223 whole entry): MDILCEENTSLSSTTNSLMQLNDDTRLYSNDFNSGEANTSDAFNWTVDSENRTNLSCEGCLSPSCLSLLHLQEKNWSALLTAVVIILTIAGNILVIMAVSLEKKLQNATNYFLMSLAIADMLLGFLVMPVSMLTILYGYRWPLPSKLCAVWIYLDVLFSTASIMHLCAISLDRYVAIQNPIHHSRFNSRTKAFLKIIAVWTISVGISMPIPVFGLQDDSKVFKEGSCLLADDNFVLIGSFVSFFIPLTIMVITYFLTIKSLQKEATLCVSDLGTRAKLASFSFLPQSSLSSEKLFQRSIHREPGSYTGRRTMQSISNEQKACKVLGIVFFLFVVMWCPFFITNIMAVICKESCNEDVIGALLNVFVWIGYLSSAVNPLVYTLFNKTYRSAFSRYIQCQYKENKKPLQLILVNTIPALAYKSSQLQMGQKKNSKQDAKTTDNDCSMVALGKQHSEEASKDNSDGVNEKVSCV

[13] = Flanagan and Nichols, 2018; cited from earlier work
[14] = tested on: IL-6; conditions: human PBMCs, 100 ng/mL LPS; 0.43 μg/mL; FIG. 12
Procedure: Human PBMCs were treated with 100 ng/mL LPS to induce inflammatory conditions.

[15] = tested on: PC12 cells; test: Neurite outgrowth in rat PC12 cells; format: cell-based; conditions: 6 days
Source text: Rat PC12 cells are a cell line derived from rat pheochromocytoma and are an immortalised cell line similar to the primary culture of fetal neurons. These cells are relatively easy to passage and culture and have some features of neurons, which makes them useful in the study of nerve physiology and pharmacology.

[16] = tested on: MAPK; test: MAPK binding screen, general statements; conditions: low ng concentrations
Source text: It was identified that many combination formulations of tryptamines, He/PEP/Erinacine C, and niacin can interact with several mitogen-activated protein kinases (MAPKs) involved with brain health and can even provide synergistic benefits (Tables 7-8).
It was surprising and unexpected that such dilute psilocin at low ng concentrations produced a synergistic effect on MAPK binding when combined with other components because these low concentrations had no effect on MAPK binding when used alone. Therefore, one would have expected these low concentrations to be ineffective. The low concentrations also overcome the pharmacodynamic issues faced when using high concentrations of psilocin.

[17] = row of combination at 125 μg/mL
[18] = row of combination at 2.5 μg/mL
[19] = row of combination at 250 μg/mL
[20] = row of combination at 16, 16 ng/mL
[21] = row of combination at 3, 0.2 ng/mL
[22] = row of combination at 0.6, 0.6 ng/mL

T1 sequence (Q16539 whole entry): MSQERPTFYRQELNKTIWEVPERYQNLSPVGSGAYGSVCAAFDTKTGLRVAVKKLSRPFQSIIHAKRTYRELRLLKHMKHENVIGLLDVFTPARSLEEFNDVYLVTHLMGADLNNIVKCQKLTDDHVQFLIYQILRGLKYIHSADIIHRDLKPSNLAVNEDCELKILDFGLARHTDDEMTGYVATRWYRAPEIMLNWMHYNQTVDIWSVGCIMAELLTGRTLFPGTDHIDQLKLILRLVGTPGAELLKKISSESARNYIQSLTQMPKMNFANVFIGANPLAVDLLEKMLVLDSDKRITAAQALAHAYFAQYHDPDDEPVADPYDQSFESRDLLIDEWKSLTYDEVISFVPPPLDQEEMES

## CNCCc1c[nH]c2cccc(OP(=O)(O)O)c12 [Baeo, 4-phosphoryloxy-N-methyltryptamine]
[1]; combinations at 2.5 μg/mL
  MAPK binding affinity value of individual component: 2
[1]; combinations at 5 μg/mL
  MAPK binding affinity value of individual component: 9
[1]; combinations at 10 μg/mL
  MAPK binding affinity value of individual component: 1
[1]; combinations at 250 μg/mL
  MAPK binding affinity value of individual component: 1
[2]; [17]
  MAPK binding affinity value of individual component: 8
[3]; combinations at 250 μg/mL
  MAPK binding affinity value of individual component: 6
[3]; [17]
  MAPK binding affinity value of individual component: 3
[4]
  MAPK binding affinity value of individual component: 12
[5]; [18]
  MAPK binding affinity value of individual component: 1
[6]
  MAPK binding affinity value of individual component: 0
[7]; 4 mg, anecdotal, Gartz 1991
  hallucinogenic effect after consumption: gentle hallucinogenic experience
[7]; 10 mg and 20 mg, case studies
  hallucinogenic effect after oral consumption: did not produce any hallucinogenic effects

## COc1ccc2c(c1)[nH]c1c(C)nccc12 [Harmine, 7-methyoxy-1-methyl-carboline]
[8]
  MAO-A inhibition: specific MAO-A inhibitors
[9]
  MAO-B inhibition: poor inhibitors of MAO-B

## CNCCc1c[nH]c2cccc(O)c12 [Norpsilo, 4-hydroxy-N-methyl-tryptamine]
[1]; combinations at 2.5 μg/mL
  MAPK binding affinity value of individual component: 15
[1]; combinations at 5 μg/mL
  MAPK binding affinity value of individual component: 1
[1]; combinations at 10 μg/mL
  MAPK binding affinity value of individual component: 21
[1]; combinations at 250 μg/mL
  MAPK binding affinity value of individual component: 21
[2]; row of combination at 5 μg/mL
  MAPK binding affinity value of individual component: 19
[5]; [19]
  MAPK binding affinity value of individual component: 0
[10]
  expression of the anti-inflammatory cytokine IL-10: significantly upregulate
[11]
  anti-inflammatory effect (TNF-α expression): have anti-inflammatory effects at certain concentrations

## COc1ccc2c3c([nH]c2c1)C(C)=NCC3 [harmaline, 3,4-dihydro-7-methoxy-1-methyl-carboline]
[8]
  MAO-A inhibition: specific MAO-A inhibitors
[9]
  MAO-B inhibition: poor inhibitors of MAO-B

## CN(C)CCc1c[nH]c2ccccc12 [DMT, N,N-dimethyltryptamine]
[5]; [20]
  MAPK binding affinity value of individual component: 5

## CC(C)C1=C2C3=CC=C(CO)[C@H]4O[C@H]5[C@@H](OC[C@@H](O)[C@@H]5O)O[C@@H]4[C@]3(C)CC[C@@]2(C)CC1 [Erinacine C]
[2]; [21]
  MAPK binding affinity value of individual component: 6

## COc1cc(C[C@@H](C)N)c(OC)cc1I [(R)-2,5-dimethoxy-4-iodoamphetamine]
[12]
  5-HT2A receptor activation: activate the 5-HT2A receptor
[13]
  inflammation in the lungs: prevent and reverse inflammation in the lungs

## NCCc1c[nH]c2cccc(OP(=O)(O)O)c12 [Norbaeo, 4-phosphoryloxy-tryptamine]
[1]; combinations at 2.5 μg/mL
  MAPK binding affinity value of individual component: 22
[1]; combinations at 5 μg/mL
  MAPK binding affinity value of individual component: 12
[1]; combinations at 10 μg/mL
  MAPK binding affinity value of individual component: 17
[2]; row of combination at 5 μg/mL
  MAPK binding affinity value of individual component: 4
[2]; [17]
  MAPK binding affinity value of individual component: 4
[3]; combinations at 250 μg/mL
  MAPK binding affinity value of individual component: 3
[4]
  MAPK binding affinity value of individual component: 0
[5]; [18]
  MAPK binding affinity value of individual component: 3
[5]; rows of combinations at 62.5 μg/mL
  MAPK binding affinity value of individual component: 3
[10]
  expression of the anti-inflammatory cytokine IL-10: significantly upregulate
[14]
  IL-6 expression: significantly reduced

## O=C(O)c1cccnc1 [Niacin, nicotinic acid, reference compound]
[2]; [22]
  MAPK binding affinity value of individual component: 0
[5]; [19]
  MAPK binding affinity value of individual component: 6
[5]; [20]
  MAPK binding affinity value of individual component: 5
[15]; 0.35 μg/mL
  highest mean neurite outgrowth, of vehicle control: 112%
[11]
  anti-inflammatory effect (TNF-α expression): have anti-inflammatory effects at certain concentrations

## CN(C)CCc1c[nH]c2cccc(O)c12 [Psilocin, 4-hydroxy-N,N-dimethyltryptamine]
[2]; [22]
  MAPK binding affinity value of individual component: 1
[2]; [21]
  MAPK binding affinity value of individual component: 2
[5]; row of combination at 30, 1.8 ng/mL
  MAPK binding affinity value of individual component: 1
[15]; 0.043 μg/mL
  highest mean neurite outgrowth, of vehicle control: 168%
[16]
  effect on MAPK binding when used alone: no effect
